Here are results for 24 compounds from ChEMBL document CHEMBL3046300, “Design, synthesis, and biological evaluation of sulfonic acid ester and benzenesulfonamide derivatives as potential CETP inhibitors” (Med Chem Res, 2012).

What is called inhibition is the share of the control response that was lost under treatment. A low value points to a weak effect. The IC50 is the concentration needed to halve the response being measured. Read a high IC50 as lower potency.

The target in test [1] is T1, Cholesteryl ester transfer protein (Oryctolagus cuniculus) (UniProt P22687).
T1 sequence (whole entry): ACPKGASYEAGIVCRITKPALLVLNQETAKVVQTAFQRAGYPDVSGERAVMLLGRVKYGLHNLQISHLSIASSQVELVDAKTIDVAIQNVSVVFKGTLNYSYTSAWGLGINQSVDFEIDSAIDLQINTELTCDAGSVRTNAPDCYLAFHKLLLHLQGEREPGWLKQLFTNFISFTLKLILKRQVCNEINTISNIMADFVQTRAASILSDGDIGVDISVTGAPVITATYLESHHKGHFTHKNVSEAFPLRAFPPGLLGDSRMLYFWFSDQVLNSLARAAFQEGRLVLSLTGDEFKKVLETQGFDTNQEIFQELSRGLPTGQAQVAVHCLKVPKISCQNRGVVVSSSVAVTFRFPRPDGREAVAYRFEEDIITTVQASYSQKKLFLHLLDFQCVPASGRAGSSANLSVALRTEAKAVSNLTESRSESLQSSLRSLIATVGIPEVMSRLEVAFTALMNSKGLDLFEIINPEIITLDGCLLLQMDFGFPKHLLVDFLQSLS
The test is described as follows: Inhibition of Oryctolagus cuniculus (rabbit) CETP-mediated cholesteryl ester transfer at 10 uM after 1 hr by fluorescence assay.

In test [2] the target is T2, Cholesteryl ester transfer protein (Oryctolagus cuniculus, UniProt P22687).
T2 sequence (P22687 whole entry): T1 sequence (whole entry)
In words: Inhibition of Oryctolagus cuniculus (rabbit) CETP-mediated cholesteryl ester transfer after 1 hr by fluorescence assay.

As for `Cc1ccc(S(=O)(=O)Oc2ccc(NCc3cccc([N+](=O)[O-])c3)cc2)cc1`, the inhibition in test [1] amounted to 29.9%.

On to `Cc1ccc(S(=O)(=O)Oc2ccc(N(Cc3ccc([N+](=O)[O-])cc3)Cc3ccc([N+](=O)[O-])cc3)cc2)cc1`, for which the inhibition in test [1] came out at 9.3%.

Turning to `Cc1ccc(S(=O)(=O)N(c2ccc(OCc3cccc(C(F)(F)F)c3)cc2)S(=O)(=O)c2ccc(C)cc2)cc1`, in test [1], the inhibition was determined as 39%. The compound further returned an IC50 in test [2] of 11.1 µM. In turn, `Cc1ccc(S(=O)(=O)Nc2ccc(OCc3cccc(Cl)c3)cc2)cc1` showed an inhibition in test [1] of 29.6%.

Regarding `Cc1ccc(S(=O)(=O)Oc2ccc(NCc3cccc(Br)c3)cc2)cc1`, the inhibition in test [1] was found to be 16.1%. `Cc1ccc(CN(Cc2ccc(C)cc2)c2ccc(OS(=O)(=O)c3ccc(C)cc3)cc2)cc1` gave an inhibition in test [1] of 22.3%. The same measure, in the same setting: under `Cc1ccc(S(=O)(=O)Nc2ccc(OCc3ccc(Br)cc3)cc2)cc1` stands 10.2%. Still for that read-out and setting: the result for `Cc1ccc(S(=O)(=O)Oc2ccc(N(Cc3cccc(C)c3)Cc3cccc(C)c3)cc2)cc1` reads 29%; that for `Cc1ccc(S(=O)(=O)Oc2ccc(N(Cc3cccc(C(F)(F)F)c3)Cc3cccc(C(F)(F)F)c3)cc2)cc1`, 24.7%. In turn, `Cc1ccc(S(=O)(=O)N(c2ccc(OCc3cccc(C)c3)cc2)S(=O)(=O)c2ccc(C)cc2)cc1` returned an inhibition in test [1] of 66.9%. For the same compound, in test [2], it took 3.4 µM to reach half-maximal inhibition (IC50).

For `COc1cccc(COc2ccc(NS(=O)(=O)c3ccc(C)cc3)cc2)c1`, in test [1], the inhibition was 22.8%. The compound `Cc1ccc(COc2ccc(NS(=O)(=O)c3ccc(C)cc3)cc2)cc1` yielded an inhibition in test [1] of 0%.

With `Cc1ccc(S(=O)(=O)Oc2ccc(N(Cc3ccc(Br)cc3)Cc3ccc(Br)cc3)cc2)cc1`, the inhibition in test [1] stood at 17.5%.

For the compound `Cc1ccc(S(=O)(=O)Oc2ccc(N(Cc3cccc([N+](=O)[O-])c3)Cc3cccc([N+](=O)[O-])c3)cc2)cc1`, the inhibition in test [1] is 31.4%. This compound showed an IC50 in test [2] of 29.7 µM.

With `Cc1ccc(S(=O)(=O)Nc2ccc(OCc3ccc(Cl)cc3)cc2)cc1`, in test [1], the inhibition was 23%.

In test [1], `Cc1ccc(S(=O)(=O)Oc2ccc(N(Cc3ccc(Cl)cc3)Cc3ccc(Cl)cc3)cc2)cc1` had an inhibition of 24.9%.

In test [1], `Cc1ccc(S(=O)(=O)N(c2ccc(OCc3ccc(Cl)cc3)cc2)S(=O)(=O)c2ccc(C)cc2)cc1` yielded an inhibition of 37.5%. This compound also returned an IC50 in test [2] of 13.2 µM. Take `Cc1ccc(S(=O)(=O)Nc2ccc(OCc3ccc([N+](=O)[O-])cc3)cc2)cc1`: the inhibition in test [1] was determined as 15.5%.

As to `Cc1ccc(S(=O)(=O)N(c2ccc(OCc3cccc(Cl)c3)cc2)S(=O)(=O)c2ccc(C)cc2)cc1`, the inhibition in test [1] was 42.6%. In test [2], the IC50 came out at 10.5 µM.

For `Cc1ccc(S(=O)(=O)Oc2ccc(NCc3cccc(C)c3)cc2)cc1`, in test [1], the inhibition is 31.3%. For the same compound, the concentration for half-maximal inhibition (IC50) in test [2] stood at 30.1 µM. `Cc1ccc(S(=O)(=O)Nc2ccc(OCc3ccc(C(F)(F)F)cc3)cc2)cc1`: in test [1], the inhibition was 9.9%. Consider `Cc1ccc(S(=O)(=O)Oc2ccc(N(Cc3cccc(Br)c3)Cc3cccc(Br)c3)cc2)cc1`, for which the inhibition in test [1] came to 23.1%. In test [1], `COc1cccc(COc2ccc(N(S(=O)(=O)c3ccc(C)cc3)S(=O)(=O)c3ccc(C)cc3)cc2)c1` displayed an inhibition of 65.3%. In test [2], this compound yielded an IC50 of 3.9 µM. The matching figures for `Cc1ccc(S(=O)(=O)Oc2ccc(N(Cc3cccc(Cl)c3)Cc3cccc(Cl)c3)cc2)cc1`: 31.9% and 28.5 µM.
